Source: article PMC4845012, “Unique behavior of Trypanosoma cruzi mevalonate kinase: A conserved glycosomal enzyme involved in host cell invasion and signaling” (Scientific Reports, 2016)
Values joined by “and” are separate entries in the source; they are usually repeats but may differ in a detail not shown here. Identical values can stand only once.

What was measured:
rTcMVK = biological target: T1, rTcMVK (Trypanosoma cruzi, UniProt A0A165UDJ0); experiment: coupled pyruvate kinase / lactate dehydrogenase assay, NADH at […] nm; type: biochemical; details: MgCl2 […], glycine pH […] °C, dimer
T1 construct: gene MVK; N-terminal His6 tag (pET-28a, BamHI/HindIII), E. coli BL21; native 34 kDa; active dimer fraction from gel filtration
T1 sequence (A0A165UDJ0 43-364 limits assumed): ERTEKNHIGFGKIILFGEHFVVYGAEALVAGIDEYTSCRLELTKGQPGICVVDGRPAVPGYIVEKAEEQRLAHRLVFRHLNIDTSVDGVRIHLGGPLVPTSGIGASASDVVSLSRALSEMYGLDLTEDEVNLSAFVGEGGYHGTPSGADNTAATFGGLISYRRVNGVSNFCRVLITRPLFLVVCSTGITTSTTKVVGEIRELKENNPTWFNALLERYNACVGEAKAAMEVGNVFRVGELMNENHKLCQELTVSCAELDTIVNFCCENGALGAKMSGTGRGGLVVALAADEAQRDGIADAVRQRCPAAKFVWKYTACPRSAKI

[1] = biological target: recombinant Trypanosoma cruzi mevalonate kinase (rTcMVK) (Trypanosoma cruzi (G strain)); experiment: SEC; Superdex 200 High Load 16/60 prep-grade, glycine buffer pH 9.0 with 0.15 M NaCl, after Ni-NTA; separates the oligomerization states of rTcMVK

Compound: CC(O)(CCO)CC(=O)O (racemic) [(RS)-mevalonic acid]
- coupled pyruvate kinase / lactate dehydrogenase assay, NADH at 340 nm (rTcMVK; ATP […], racemic mevalonate […] from hydrolysed lactone): In vitro assays using synthetic mevalonic acid confirmed enzymatic activity of recombinant TcMVK

Compound: Nc1ncnc2c1ncn2[C@@H]1O[C@H](COP(=O)(O)OP(=O)(O)OP(=O)(O)O)[C@@H](O)[C@H]1O [ATP]
- coupled pyruvate kinase / lactate dehydrogenase assay, NADH at 340 nm (rTcMVK; mevalonate […], blank without ATP): Blank assays were performed in the absence of ATP.

Compound: recombinant Trypanosoma cruzi mevalonate kinase (rTcMVK) (enzyme)
- stoichiometry N [1]: 4 and 2
